The test system of experiment [1] is insulin-like growth factor receptor 1. Particulars: cited from earlier work.
The next experiment has as its system VEGF receptor. Particulars: cited from earlier work.
Experiment [2] deals with T1, EGF receptor (Homo sapiens, UniProt P00533). Particulars: cited from earlier work.
For another experiment, the system named is insulin receptor. Particulars: cited from earlier work.
Experiment [3] has as its target T2, EphA2-ephrin-A1 interaction (EphA2-Fc ectodomain) (Mus musculus, UniProt Q03145). Particulars: read-out: Ki, competitive antagonist of the EphA2 receptor; earlier work; cited from earlier work.
The target of experiment [4] is T2, EphA2-ephrin-A1 interaction (EphA2-Fc ectodomain). The class given is binding. Particulars: for Activity in EphA2-ephrin-A1 binding assay, in words: tested starting from 200 μM; for Schild plot slope: slope between 0.8 and 1.2 indicates competitive binding.
Experiment [5] concerns the target T3, recombinant human EphA2 kinase domain (Homo sapiens, UniProt P29317).
T3 sequence (P29317 613-875 limits assumed): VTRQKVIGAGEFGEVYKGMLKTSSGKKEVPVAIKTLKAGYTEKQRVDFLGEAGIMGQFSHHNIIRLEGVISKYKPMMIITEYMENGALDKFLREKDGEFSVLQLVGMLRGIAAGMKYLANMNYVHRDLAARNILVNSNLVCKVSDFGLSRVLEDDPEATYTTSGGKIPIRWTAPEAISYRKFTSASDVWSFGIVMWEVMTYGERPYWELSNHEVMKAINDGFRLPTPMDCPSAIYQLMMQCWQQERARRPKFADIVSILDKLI
As to the kind of experiment: EphA2 kinase assay. It is filed as biochemical. Particulars: 100 μM, 30 minutes.

Experiment [6] deals with EphA receptors (vs EphB receptors). It is filed as binding. Particulars: compared with lithocholic acid.
The next experiment addresses T4, EphB4 receptor (Homo sapiens, UniProt P54760).
T4 sequence (P54760 16-987): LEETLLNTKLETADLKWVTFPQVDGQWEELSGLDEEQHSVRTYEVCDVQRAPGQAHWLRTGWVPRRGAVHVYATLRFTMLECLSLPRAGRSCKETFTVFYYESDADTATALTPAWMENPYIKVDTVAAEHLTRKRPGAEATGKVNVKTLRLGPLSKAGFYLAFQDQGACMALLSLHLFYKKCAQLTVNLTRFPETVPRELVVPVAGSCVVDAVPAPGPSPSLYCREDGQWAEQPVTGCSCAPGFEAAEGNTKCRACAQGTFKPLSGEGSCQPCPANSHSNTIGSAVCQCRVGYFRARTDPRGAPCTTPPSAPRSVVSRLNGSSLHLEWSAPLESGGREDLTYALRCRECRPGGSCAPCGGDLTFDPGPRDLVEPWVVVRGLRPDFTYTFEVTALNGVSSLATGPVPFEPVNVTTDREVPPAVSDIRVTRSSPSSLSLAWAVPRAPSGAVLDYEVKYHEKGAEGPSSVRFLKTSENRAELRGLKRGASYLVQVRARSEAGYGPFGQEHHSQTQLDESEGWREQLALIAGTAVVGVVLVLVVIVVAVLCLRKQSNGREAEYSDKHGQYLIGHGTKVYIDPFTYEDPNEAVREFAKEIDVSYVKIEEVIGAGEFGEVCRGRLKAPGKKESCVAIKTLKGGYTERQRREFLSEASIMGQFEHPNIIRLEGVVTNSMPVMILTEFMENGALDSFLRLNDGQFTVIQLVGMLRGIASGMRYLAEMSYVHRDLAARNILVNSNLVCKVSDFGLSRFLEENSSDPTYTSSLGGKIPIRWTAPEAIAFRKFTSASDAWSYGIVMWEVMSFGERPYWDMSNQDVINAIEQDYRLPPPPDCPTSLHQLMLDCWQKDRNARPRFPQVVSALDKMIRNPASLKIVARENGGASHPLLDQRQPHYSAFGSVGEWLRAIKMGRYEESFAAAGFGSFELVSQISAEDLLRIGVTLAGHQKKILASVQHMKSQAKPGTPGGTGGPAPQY
As to the kind of experiment: EphB4 phosphorylation induced by ephrin-B2-Fc in T47D cells. It is filed as cell-based. Particulars: no ephrin, data not shown.

Experiment [7] deals with EphA2 receptor (Mus musculus, UniProt Q03145). As to the kind of experiment: Surface plasmon resonance. It is filed as binding. Particulars: for Kd: SPR. Background: Surface plasmon resonance follows binding to a sensor surface in real time, without labels.
Experiment [8] has as its target EphA2 receptor (Homo sapiens, UniProt P29317). As to the kind of experiment: EphA2 phosphorylation induced by ephrin-A1-Fc in PC3 cells. The class given is cell-based. Particulars: no ephrin, data not shown.
Experiment [9] addresses T1, EGF receptor. As to the kind of experiment: EGF receptor phosphorylation induced by EGF in PC3 cells. It is filed as cell-based. Particulars: up to 100 μM, 30 ng/ml EGF.

Like-named read-outs stand apart in the source and are kept apart here.

T2 sequence (Q03145 26-538 limits assumed): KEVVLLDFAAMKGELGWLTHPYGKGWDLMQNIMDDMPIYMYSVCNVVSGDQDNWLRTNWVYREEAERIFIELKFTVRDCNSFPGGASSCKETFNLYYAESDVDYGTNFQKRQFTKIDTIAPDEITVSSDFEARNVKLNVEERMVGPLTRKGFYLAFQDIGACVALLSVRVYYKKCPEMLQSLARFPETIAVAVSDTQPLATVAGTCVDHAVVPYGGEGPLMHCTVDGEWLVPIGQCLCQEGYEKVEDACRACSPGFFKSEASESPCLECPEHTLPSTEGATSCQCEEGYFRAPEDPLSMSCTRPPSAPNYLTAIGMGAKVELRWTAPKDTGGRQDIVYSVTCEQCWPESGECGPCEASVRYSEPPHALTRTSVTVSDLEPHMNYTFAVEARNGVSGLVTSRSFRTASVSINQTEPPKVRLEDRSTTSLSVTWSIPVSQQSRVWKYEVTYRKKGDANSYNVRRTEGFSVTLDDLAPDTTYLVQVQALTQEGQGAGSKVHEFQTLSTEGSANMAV
EphA2 receptor (Mus musculus, UniProt Q03145), sequence (Q03145 26-538 limits assumed): as above
T1 sequence (P00533 25-1210): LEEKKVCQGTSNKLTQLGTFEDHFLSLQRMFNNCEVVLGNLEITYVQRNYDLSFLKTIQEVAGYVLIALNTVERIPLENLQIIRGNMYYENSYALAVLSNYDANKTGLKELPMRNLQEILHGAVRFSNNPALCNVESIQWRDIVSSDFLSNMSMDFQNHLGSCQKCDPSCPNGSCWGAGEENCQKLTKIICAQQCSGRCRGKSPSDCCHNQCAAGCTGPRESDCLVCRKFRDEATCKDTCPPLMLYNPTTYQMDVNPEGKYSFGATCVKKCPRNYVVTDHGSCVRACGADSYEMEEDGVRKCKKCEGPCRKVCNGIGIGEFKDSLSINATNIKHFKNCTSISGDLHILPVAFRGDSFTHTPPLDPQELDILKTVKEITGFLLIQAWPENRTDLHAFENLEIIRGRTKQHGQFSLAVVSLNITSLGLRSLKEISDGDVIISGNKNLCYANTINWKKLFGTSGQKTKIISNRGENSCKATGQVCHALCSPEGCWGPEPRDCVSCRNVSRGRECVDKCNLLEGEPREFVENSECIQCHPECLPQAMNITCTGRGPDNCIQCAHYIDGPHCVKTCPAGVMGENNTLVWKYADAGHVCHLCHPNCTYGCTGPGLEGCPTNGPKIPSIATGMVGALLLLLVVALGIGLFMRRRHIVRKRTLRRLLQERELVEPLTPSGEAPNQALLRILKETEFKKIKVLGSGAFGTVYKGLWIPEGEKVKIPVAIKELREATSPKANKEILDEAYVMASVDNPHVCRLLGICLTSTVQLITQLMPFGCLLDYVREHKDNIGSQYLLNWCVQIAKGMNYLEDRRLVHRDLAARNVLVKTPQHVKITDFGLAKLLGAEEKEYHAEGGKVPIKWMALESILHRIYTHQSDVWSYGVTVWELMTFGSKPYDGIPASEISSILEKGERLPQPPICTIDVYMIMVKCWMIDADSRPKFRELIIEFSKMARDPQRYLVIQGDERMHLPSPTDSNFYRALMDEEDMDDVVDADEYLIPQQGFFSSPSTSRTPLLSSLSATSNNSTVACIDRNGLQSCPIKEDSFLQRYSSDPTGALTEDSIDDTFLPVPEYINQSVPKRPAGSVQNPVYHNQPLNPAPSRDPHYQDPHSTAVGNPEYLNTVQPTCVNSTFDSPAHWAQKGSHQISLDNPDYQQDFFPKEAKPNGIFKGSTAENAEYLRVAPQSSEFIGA
EphA2 receptor (Homo sapiens, UniProt P29317), sequence (P29317 24-976): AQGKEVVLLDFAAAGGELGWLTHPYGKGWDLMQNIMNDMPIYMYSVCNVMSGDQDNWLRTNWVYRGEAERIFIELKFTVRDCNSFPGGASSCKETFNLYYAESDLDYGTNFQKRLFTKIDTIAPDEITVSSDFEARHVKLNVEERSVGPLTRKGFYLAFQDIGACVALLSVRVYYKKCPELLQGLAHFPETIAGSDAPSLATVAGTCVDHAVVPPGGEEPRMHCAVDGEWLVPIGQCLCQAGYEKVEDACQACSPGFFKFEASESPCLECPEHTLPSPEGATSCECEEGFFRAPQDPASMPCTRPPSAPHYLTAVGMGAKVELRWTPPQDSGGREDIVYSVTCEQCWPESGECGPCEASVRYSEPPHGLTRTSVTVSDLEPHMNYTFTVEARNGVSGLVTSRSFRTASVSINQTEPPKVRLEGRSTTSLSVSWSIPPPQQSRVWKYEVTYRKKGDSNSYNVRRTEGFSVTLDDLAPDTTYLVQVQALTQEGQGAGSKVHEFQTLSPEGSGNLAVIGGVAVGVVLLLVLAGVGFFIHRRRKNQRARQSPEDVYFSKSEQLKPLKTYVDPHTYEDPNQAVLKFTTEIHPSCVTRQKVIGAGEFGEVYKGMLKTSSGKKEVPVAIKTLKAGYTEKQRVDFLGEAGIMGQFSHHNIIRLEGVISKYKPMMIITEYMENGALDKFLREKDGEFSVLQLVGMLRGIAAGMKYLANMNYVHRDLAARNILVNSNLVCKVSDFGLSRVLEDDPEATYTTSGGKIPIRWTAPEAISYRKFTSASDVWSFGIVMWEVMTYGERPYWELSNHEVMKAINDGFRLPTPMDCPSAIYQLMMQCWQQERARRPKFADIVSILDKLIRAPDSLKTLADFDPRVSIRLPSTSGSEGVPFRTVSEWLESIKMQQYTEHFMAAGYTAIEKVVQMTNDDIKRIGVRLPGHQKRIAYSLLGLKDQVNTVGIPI

As a reminder, the Ki is the dissociation constant of the complex between target and ligand, obtained from inhibition or displacement. As to `C[C@H](CCC(=O)O)[C@H]1CC[C@H]2[C@@H]3CC[C@@H]4C[C@H](O)CC[C@]4(C)[C@H]3CC[C@]12C` [Compound 1, (3α,5β)-3-hydroxycholan-24-oic acid], the “Effect on insulin-like growth factor receptor 1” value in experiment [1] was “lack of effects”. Also, the “Effect on VEGF receptor” value in the experiment on VEGF receptor is “lack of effects”. For the same compound, the “Effect on EGF receptor” value on EGF receptor [2] is “lack of effects”. In addition, the “Effect on insulin receptor” value in the experiment on insulin receptor is “lack of effects”. Besides, in [3], the Ki was 49 ± 3 µM.
As to `C[C@H](CCC(=O)O)[C@H]1CC[C@H]2[C@@H]3[C@H](O)C[C@@H]4C[C@H](O)CC[C@]4(C)[C@H]3C[C@H](O)[C@]12C` [Compound 2, cholic acid], in experiment [4], the Ki is > 200 µM and the “Activity in EphA2-ephrin-A1 binding assay, in words” value (from here on “Activity … in words”) was “inactive”.
The like results for `C[C@H](CCC(=O)O)[C@H]1CC[C@H]2[C@@H]3CC[C@@H]4C[C@H](O)CC[C@]4(C)[C@H]3C[C@H](O)[C@]12C` [Compound 3, deoxycholic acid] were, in that order, > 200 µM and “inactive”.
On the same counts, the results for `C[C@H](CCC(=O)O)[C@H]1CC[C@H]2[C@@H]3[C@H](O)C[C@@H]4C[C@H](O)CC[C@]4(C)[C@H]3CC[C@]12C` [Compound 4, chenodeoxycholic acid] are > 200 µM and “inactive”.
As a reminder, the IC50 is the concentration that inhibits the measured activity by half. A lower IC50 goes with greater potency. For the compound `C[C@H](CCC(=O)O)[C@H]1CC[C@H]2[C@@H]3CC[C@@H]4C[C@@H](O)CC[C@]4(C)[C@H]3CC[C@]12C` [Compound 10, (3β,5β)-3-hydroxycholan-24-oic acid], the IC50 in [4] is 67 µM. The Schild plot slope in experiment [4] (listed as isolithocholic) came out at 0.96 ± 007.
Take `C[C@H](CCC(=O)O)[C@H]1CC[C@H]2[C@@H]3CC[C@@H]4C[C@@H](S(=O)(=O)O)CC[C@]4(C)[C@H]3CC[C@]12C` [Compound 11, (3β,5β)-3-sulfocholan-24-oic acid]: in experiment [4], the Ki was > 200 µM and the “Activity … in words” value is “inactive”.
A word on the Kd: it is the equilibrium constant for the complex coming apart. Read a low Kd as a tighter complex. The term kon denotes the second-order rate constant of association. As a reminder, the koff is a measure of how fast the partners let go of each other. With `C[C@H](CCC(=O)O)[C@H]1CC[C@H]2[C@@H]3CC[C@@H]4CCCC[C@]4(C)[C@H]3CC[C@]12C` [Compound 12, (5β)-cholan-24-oic acid], the “Effect on EphA2 kinase activity” value in experiment [5] is on record as “did not affect”. The compound also showed a Ki in experiment [4] of 5.1 ± 1.4 µM. Moreover, in experiment [4] (listed as cholanic acid), the Schild plot slope was 0.98 ± 002. Moreover, the “Selectivity between Eph receptor subfamilies, in words” value in experiment [6] is “more selective for the EphA receptor subfamily”. In addition, the “Stimulation of EphB4 tyrosine phosphorylation by compound on its own” value on EphB4 receptor is “did not stimulate”. In addition, the Kd came to 1.16 µM at EphA2 receptor [7] (KD from steady state analysis, steady state affinity) and 8.45 µM at EphA2 receptor [7] (affinity constant (KD) from kinetic analysis, koff/kon). In addition, the kon at EphA2 receptor [7] (read-out: association rate (kon)) was found to be 44000 M⁻¹ s⁻¹. Further, the koff on EphA2 receptor [7] (read-out: dissociation rate (koff)) is 0.369 s⁻¹. Further, on EphA2 receptor [8], the “Stimulation of EphA2 tyrosine phosphorylation by compound on its own” value was “did not stimulate”. Besides, the “Effect on EGF receptor activation induced by EGF” value on EGF receptor [9] is given as “did not interfere”.
In the case of `COC(=O)CC[C@@H](C)[C@H]1CC[C@H]2[C@@H]3CC[C@@H]4C[C@H](O)CC[C@]4(C)[C@H]3CC[C@]12C` [Compound 13, methyl (3α,5β)-3-hydroxycholan-24-oate], in experiment [4], the inhibitory constant (Ki) is > 200 µM and the “Activity … in words” value was “inactive or weakly active”.
As for `C[C@H](CCC(=O)NO)[C@H]1CC[C@H]2[C@@H]3CC[C@@H]4C[C@H](O)CC[C@]4(C)[C@H]3CC[C@]12C` [Compound 14, (3α,5β)-3-Hydroxycholan-24-hydroxamic acid], in [4], the Ki is > 200 µM and the “Activity … in words” value is “inactive or weakly active”.
The like results for `C[C@H](CCC(=O)NN)[C@H]1CC[C@H]2[C@@H]3CC[C@@H]4C[C@H](O)CC[C@]4(C)[C@H]3CC[C@]12C` [Compound 15, (3α,5β)-3-Hydroxycholan-24-hydrazide] were, in that order, > 200 µM and “inactive or weakly active”.
The like results for `C[C@H](CCCO)[C@H]1CC[C@H]2[C@@H]3CC[C@@H]4C[C@H](O)CC[C@]4(C)[C@H]3CC[C@]12C` [Compound 16, (3α,5β)-Cholan-3,24-diol] were, in that order, 186 ± 27 µM and “inactive or weakly active”.

Values taken from PMC3677030 (ChemMedChem, 2012).
